{"source": "patent US12161656B2", "about": "(MELINTA SUBSIDIARY CORP., priority 2010, dated 2024)", "key": {"[1]": {"system": "rabbit red blood cells (RBCs)"}, "[2]": {"excerpt": "The solubility of four non-dimethlyamino tetracyclines, with and without Mg^2+, was examined."}, "[3]": {"system": "Human umbilical vein endothelial cells (HUVEC)", "experiment": "Uptake of minocycline in HUVEC at various Mg/minocycline ratios (LCMS), Example 12", "type": "cell-based", "conditions": "1 mg/mL in saline, 30 min, Mg/minocycline ratios 0-25, FIGS. 6 and 7", "experimental": "Cells and reagents: Human umbilical vein endothelial cells (HUVEC) were purchased from Lonza and maintained according to manufacturer's recommendations in EGM-2 media. A 10 mg/mL solution of minocycline was prepared in 13.6 mg/mL Na-acetate without addition of Mg. This stock solution was further diluted in saline to 1 mg/mL with addition of Mg in the form of 1 M MgSO4 to generate the following molar ratios of Mg to minocycline: 0, 1, 2.5, 5, 10, 25.\nUptake experimental conditions: HUVECs were seeded at 4.5×10^5 cells/well density in 6-well plates in EGM-2 media. Two days after seeding, cells were washed once with 2 mL of saline, and then 2 mL of 1 mg/mL drug solution in saline prepared as described above was placed in each well in triplicate. Plates were incubated in a CO2 incubator at 37° C. for 30 min. Drug solutions were aspirated and cells were washed once with 2 mL of saline. 0.5 mL of saline was placed in each well and the cell monolayer was scraped using a plastic cell scraper. Cell suspensions were transferred to 1.5 mL plastic tubes and sonicated for 30 sec at maximal power. Cell lysates were spun down for 10 min on a table top microcentrifuge at maximum speed and supernatants were collected. […]"}, "[4]": {"system": "rabbit red blood cells (RBCs)", "experiment": "In vitro hemolysis of rabbit red blood cells (in vitro model of venous phlebitis), Example 8", "conditions": "Table 29, rabbit RBCs, 2.5 mg/ml minocycline solution, different molar ratios cation:minocycline"}}, "note": "Where two headings read alike, the source gives them in different places."}
{"compound": "C[C@@H]1[C@H](O)[C@@H](C)/C=C/C=C/C=C/C=C/C=C/C=C/C=C/[C@H](O[C@@H]2O[C@H](C)[C@@H](O)[C@H](N)[C@@H]2O)C[C@@H]2O[C@](O)(C[C@@H](O)C[C@@H](O)[C@H](O)CC[C@@H](O)C[C@@H](O)CC(=O)O[C@H]1C)C[C@H](O)[C@H]2C(=O)O", "note": "[Amphoterin B, Amphotericin B]", "values": [{"measurement": "Hemolysis of RBCs in solution relative to water", "setting": "[1]", "value": 101.31, "unit": "%"}, {"measurement": "Hemolysis of RBCs in solution relative to water", "setting": "[1]; pH 5.85", "value": 101.31, "unit": "%"}]}
{"compound": "C[C@H]1c2cccc(O)c2C(=O)C2=C(O)[C@]3(O)C(=O)C(C(N)=O)=C(O)[C@@H](N(C)C)[C@@H]3[C@@H](O)[C@@H]21", "note": "[Doxycycline]", "values": [{"measurement": "solubility (text summary of Table 36)", "setting": "[2]", "value": "is soluble in the absence of divalent cations, such as Mg^2+, but is insoluble in the presence of divalent cations at low pH"}]}
{"compound": "CN(C)c1ccc(O)c2c1C[C@H]1C[C@H]3[C@H](N(C)C)C(O)=C(C(N)=O)C(=O)[C@@]3(O)C(O)=C1C2=O", "note": "[Minocycline]", "values": [{"measurement": "intracellular uptake of minocycline", "setting": "[3]", "value": "decrease in intracellular uptake of minocycline is observed as the concentration of a divalent cation, such as Mg^2+ increases"}]}
{"compound": "CN(C)[C@@H]1C(O)=C(C(N)=O)C(=O)[C@@]2(O)C(O)=C3C(=O)c4c(O)cccc4[C@@](C)(O)[C@H]3[C@H](O)[C@@H]12", "note": "[oxytetracycline]", "values": [{"measurement": "solubility (text summary of Table 36)", "setting": "[2]", "value": "remains insoluble in the presence of divalent cations, such as Mg^2+, at low pH"}]}
{"compound": "Triton-x", "values": [{"measurement": "Hemolysis of RBCs in solution relative to water", "setting": "[4]", "value": 97.82, "unit": "%"}]}
